Patent US12686673B2 (Blueprint Medicines Corporation, priority 2020, dated 2026)
Where a name gives a salt, the structure may show the parent alone.

Columns and labels:
Type in all cases: cell-based
[1] = target: EGFR (A767_dupASV) expressing Ba/F3 stable cell line (Homo sapiens, UniProt P00533, DUP767-769, cells depend on it); assay: Cellular proliferation (Alamar Blue) assay, EGFR A767_dupASV Ba/F3; conditions: 72 hr, read-out: A767 IC50
Experimental: (§1) • 1. EGFR(D770_N771insSVD) expressing Ba/F3 stable cell line • 2. EGFR (A767_dupASV) expressing Ba/F3 stable cell line • 3. A431 cells • 4. EGFR (H773insNPH) expressing Ba/F3 stable cell line • 5. HER2 (A775_G776insYVMA) expressing Ba/F3 stable cell line Assay Procedure: • 1. Seed cells at 5000 for A431 and 15,000 cells for Ba/F3 in 100 μL/well in complete media (for A431: DMEM with […] and for Ba/F3 cells: RPMI with 10% FBS) in 96-well tissue culture plate. Leave outer wells without cells for background measurements. Incubate at 37 degree Celsius in […] humidified incubator for 16-18 hours. • 2. Add 0.025 ml of 5× concentration compound dilution or DMSO control. Final compound concentration range is 10-0.0005 μM prepared in 3-fold serial dilutions. Incubate for 72 hr at 37 degree Celsius in […] humidified incubator. • 3. Add 0.0125 ml Alamar Blue™ reagent to each well with multi-channel pipette and tap gently on each side of the plate to mix. Incubate for 3 hours at 37 degree Celsius in 5% CO2 humidified incubator. • 4. […] Data analysis was performed using XLfit 5.5.0.5.

[2] = target: EGFR(D770_N771insSVD) expressing Ba/F3 stable cell line (Homo sapiens, UniProt P00533, DUP768-770, cells depend on it); assay: Cellular proliferation (Alamar Blue) assay, EGFR D770_N771insSVD Ba/F3; conditions: 72 hr, read-out: D770 IC50
Experimental: as §1

A431 cells = assay: Cellular proliferation (Alamar Blue) assay, A431; conditions: Homo sapiens, A-431; A431 cells, Alamar Blue, 72 hr; read-out: A431 IC50
Experimental: as §1

EGFR (A767_dupASV) expressing Ba/F3 stable cell line, sequence (P00533 with tags, fused parts or gaps DUP767-769): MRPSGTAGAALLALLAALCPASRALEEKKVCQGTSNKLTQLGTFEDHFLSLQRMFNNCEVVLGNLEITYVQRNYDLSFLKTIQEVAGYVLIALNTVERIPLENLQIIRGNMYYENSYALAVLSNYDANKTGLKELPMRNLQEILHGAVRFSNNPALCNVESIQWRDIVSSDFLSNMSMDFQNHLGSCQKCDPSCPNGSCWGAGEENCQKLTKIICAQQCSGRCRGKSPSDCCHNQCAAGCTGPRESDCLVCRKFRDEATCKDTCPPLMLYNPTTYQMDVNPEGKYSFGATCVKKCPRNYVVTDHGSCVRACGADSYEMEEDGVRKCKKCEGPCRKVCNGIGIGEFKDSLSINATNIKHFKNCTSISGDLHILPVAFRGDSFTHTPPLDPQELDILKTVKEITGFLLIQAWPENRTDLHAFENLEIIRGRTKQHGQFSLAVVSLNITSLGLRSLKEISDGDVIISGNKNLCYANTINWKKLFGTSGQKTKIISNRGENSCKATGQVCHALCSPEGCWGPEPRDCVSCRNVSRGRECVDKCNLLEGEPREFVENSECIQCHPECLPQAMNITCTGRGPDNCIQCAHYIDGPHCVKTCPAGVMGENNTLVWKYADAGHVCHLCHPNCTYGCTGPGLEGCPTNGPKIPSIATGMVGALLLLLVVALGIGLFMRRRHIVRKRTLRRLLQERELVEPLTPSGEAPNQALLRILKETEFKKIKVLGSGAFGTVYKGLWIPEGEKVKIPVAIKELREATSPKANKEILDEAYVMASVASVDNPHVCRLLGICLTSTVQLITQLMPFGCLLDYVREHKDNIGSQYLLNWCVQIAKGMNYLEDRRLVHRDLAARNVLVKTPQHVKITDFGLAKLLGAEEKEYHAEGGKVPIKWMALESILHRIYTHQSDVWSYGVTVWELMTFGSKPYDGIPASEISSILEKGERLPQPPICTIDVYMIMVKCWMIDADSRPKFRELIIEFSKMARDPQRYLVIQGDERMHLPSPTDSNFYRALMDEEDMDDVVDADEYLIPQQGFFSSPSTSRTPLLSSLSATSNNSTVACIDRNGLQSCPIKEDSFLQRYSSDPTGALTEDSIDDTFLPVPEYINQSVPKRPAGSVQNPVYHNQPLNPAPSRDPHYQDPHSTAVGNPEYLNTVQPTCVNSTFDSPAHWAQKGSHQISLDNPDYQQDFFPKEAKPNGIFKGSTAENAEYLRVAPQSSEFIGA
EGFR(D770_N771insSVD) expressing Ba/F3 stable cell line, sequence (P00533 with tags, fused parts or gaps DUP768-770): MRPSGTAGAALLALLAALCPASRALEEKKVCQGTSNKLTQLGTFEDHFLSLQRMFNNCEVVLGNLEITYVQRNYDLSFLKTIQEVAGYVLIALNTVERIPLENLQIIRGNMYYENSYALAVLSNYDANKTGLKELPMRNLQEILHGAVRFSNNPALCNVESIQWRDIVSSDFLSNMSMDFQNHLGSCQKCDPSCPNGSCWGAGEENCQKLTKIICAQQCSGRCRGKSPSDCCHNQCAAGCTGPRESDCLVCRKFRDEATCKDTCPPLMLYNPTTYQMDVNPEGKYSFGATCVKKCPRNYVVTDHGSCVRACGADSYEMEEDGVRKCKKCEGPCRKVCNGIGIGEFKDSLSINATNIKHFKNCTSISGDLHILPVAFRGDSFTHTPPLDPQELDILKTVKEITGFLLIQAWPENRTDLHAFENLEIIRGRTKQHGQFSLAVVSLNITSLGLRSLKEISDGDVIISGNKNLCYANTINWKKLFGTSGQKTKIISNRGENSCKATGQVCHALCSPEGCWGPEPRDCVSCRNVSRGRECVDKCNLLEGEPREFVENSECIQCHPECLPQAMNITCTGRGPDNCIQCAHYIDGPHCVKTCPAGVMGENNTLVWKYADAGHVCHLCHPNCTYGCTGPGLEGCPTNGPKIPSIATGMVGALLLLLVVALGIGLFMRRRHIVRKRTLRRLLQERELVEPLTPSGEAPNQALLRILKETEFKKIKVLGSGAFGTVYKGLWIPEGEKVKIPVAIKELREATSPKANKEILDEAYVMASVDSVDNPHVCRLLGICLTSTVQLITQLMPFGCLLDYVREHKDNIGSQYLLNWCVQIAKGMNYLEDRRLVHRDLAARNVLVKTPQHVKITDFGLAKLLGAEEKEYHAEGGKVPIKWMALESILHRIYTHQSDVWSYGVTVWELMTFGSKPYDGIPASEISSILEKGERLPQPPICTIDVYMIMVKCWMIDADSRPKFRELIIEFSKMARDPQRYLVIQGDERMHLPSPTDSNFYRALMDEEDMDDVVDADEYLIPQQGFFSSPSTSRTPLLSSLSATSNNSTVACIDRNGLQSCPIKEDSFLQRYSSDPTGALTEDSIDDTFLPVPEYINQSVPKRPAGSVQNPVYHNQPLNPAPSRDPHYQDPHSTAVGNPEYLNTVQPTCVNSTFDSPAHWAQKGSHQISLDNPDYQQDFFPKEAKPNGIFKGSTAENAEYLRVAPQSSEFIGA

GI50 [1] [µM]	GI50 [2] [µM]	IC50 (A431 cells) [µM]	Structure (SMILES)
0.263	0.317	0.201	C=CC(=O)Nc1ccc(F)c(Nc2nc(Nc3ccn(C)n3)ncc2-c2ccc(C(F)(F)F)cc2)c1 [Compound 113, N-(4-fluoro-3-((2-((1-methyl-1H-pyrazol-3-yl)amino)-5-(4-(trifluoromethyl)phenyl)pyrimidin-4-yl)amino)phenyl)acrylamide trifluoroacetate]
> 10	> 10	> 10	C=CC(=O)Nc1ccc(N(C)C)c(Nc2nc(Nc3cnn(C)c3)ncc2-c2ccc(C(F)(F)F)cc2)c1 [Compound 119, N-(4-(dimethylamino)-3-((2-((1-methyl-1H-pyrazol-4-yl)amino)-5-(4-(trifluoromethyl)phenyl)pyrimidin-4-yl)amino)phenyl)acrylamide trifluoroacetate]
0.875	0.967	3.8	C=CC(=O)Nc1ccc(F)c(Nc2nc(Nc3cnn(C)c3)ncc2C2CC2)c1 [Compound 120, N-(3-((5-cyclopropyl-2-((1-methyl-1H-pyrazol-4-yl)amino)pyrimidin-4-yl)amino)-4-fluorophenyl)acrylamide trifluoroacetate]
> 10	2.87	1.28	C=CC(=O)Nc1ccc(F)c(Nc2nc(Nc3ccccc3)ncc2-c2ccc(C(F)(F)F)cc2)c1 [Compound 121, N-(4-fluoro-3-((2-(phenylamino)-5-(4-(trifluoromethyl)phenyl)pyrimidin-4-yl)amino)phenyl)acrylamide]
> 10	1.99	3.69	C=CC(=O)Nc1ccc(F)c(Nc2nc(Nc3ccc(F)cc3)ncc2-c2ccc(C(F)(F)F)cc2)c1 [Compound 122, N-(4-fluoro-3-((2-((4-fluorophenyl)amino)-5-(4-(trifluoromethyl)phenyl)pyrimidin-4-yl)amino)phenyl)acrylamide trifluoroacetate]
0.284	0.328	1.53	C=CC(=O)Nc1ccc(F)c(Nc2nc(Nc3cnn(C)c3)ncc2C2=CCOCC2)c1 [Compound 124, N-(3-((5-(3,6-dihydro-2H-pyran-4-yl)-2-((1-methyl-1H-pyrazol-4-yl)amino)pyrimidin-4-yl)amino)-4-fluorophenyl)acrylamide]
8.41	> 10	3.28	C=CC(=O)Nc1ccc(F)c(Nc2nc(Nc3cnn(C)c3)ncc2-c2cccc(CN(C)C)c2)c1 [Compound 134, N-(3-((5-(3-((dimethylamino)methyl)phenyl)-2-((1-methyl-1H-pyrazol-4-yl)amino)pyrimidin-4-yl)amino)-4-fluorophenyl)acrylamide]
2.88	3.14	> 10	C=CC(=O)Nc1ccc(F)c(Nc2nc(Nc3cnn(C)c3)ncc2-c2ccc(S(N)(=O)=O)cc2)c1 [Compound 138, N-(4-fluoro-3-((2-((1-methyl-1H-pyrazol-4-yl)amino)-5-(4-sulfamoylphenyl)pyrimidin-4-yl)amino)phenyl)acrylamide]
0.3	0.276	0.235	C=CC(=O)Nc1ccc(F)c(Nc2nc(Nc3cnn(C)c3)ncc2-c2cccc(OC(F)F)c2)c1 [Compound 143, N-(3-((5-(3-(difluoromethoxy)phenyl)-2-((1-methyl-1H-pyrazol-4-yl)amino)pyrimidin-4-yl)amino)-4-fluorophenyl)acrylamide trifluoroacetate]
2.02	0.911	3.98	C=CC(=O)Nc1ccc(F)c(Nc2nc(Nc3cnn(C)c3)ncc2-c2cccc(N(C)C)c2)c1 [Compound 145, N-(3-((5-(3-(dimethylamino)phenyl)-2-((1-methyl-1H-pyrazol-4-yl)amino)pyrimidin-4-yl)amino)-4-fluorophenyl)acrylamide]
> 10	> 10	> 10	C=CC(=O)Nc1ccc(F)c(Nc2nc(Nc3cnn(C)c3)cnc2Cl)c1 [Compound 153, N-(3-((3-chloro-6-((1-methyl-1H-pyrazol-4-yl)amino)pyrazin-2-yl)amino)-4-fluorophenyl)acrylamide]
> 10	> 10	> 10	C=CC(=O)Nc1cccc(Oc2nc(Nc3cnn(C)c3)cnc2Cl)c1 [Compound 154, N-(3-((3-chloro-6-((1-methyl-1H-pyrazol-4-yl)amino)pyrazin-2-yl)oxy)phenyl)acrylamide]
2.48	1.41	6.46	C=CC(=O)Nc1ccc(F)c(Nc2nc(Nc3cnn(C)c3)nnc2Cl)c1 [Compound 155, N-(3-((6-chloro-3-((1-methyl-1H-pyrazol-4-yl)amino)-1,2,4-triazin-5-yl)amino)-4-fluorophenyl)acrylamide]
9.44	> 10	8.25	C=CC(=O)Nc1ccc(C(=O)Nc2ccccc2)c(Nc2nc(Nc3cnn(C)c3)ncc2Cl)c1 [Compound 163, 2-({5-chloro-2-[(1-methyl-1H-pyrazol-4-yl)amino]pyrimidin-4-yl}amino)-N-phenyl-4-(prop-2-enamido) benzamide]
8.95	> 10	9.69	C=CC(=O)Nc1ccc(C(F)(F)F)c(Oc2nc(Nc3cnn(C)c3)ncc2Cl)c1 [Compound 169, N-(3-((5-chloro-2-((1-methyl-1H-pyrazol-4-yl)amino)pyrimidin-4-yl)oxy)-4-(trifluoromethyl)phenyl)acrylamide]
> 10	> 10	> 10	C=CC(=O)Nc1ccc(OC)c(Oc2nc(Nc3cnn(CCO)c3)ncc2Cl)c1 [Compound 171, N-(3-((5-chloro-2-((1-(2-hydroxyethyl)-1H-pyrazol-4-yl)amino)pyrimidin-4-yl)oxy)-4-methoxyphenyl)acrylamide]
> 10	> 10	> 10	CN(C)C/C=C/C(=O)Nc1cccc(F)c1CNc1nc(Nc2cnn(C)c2)ncc1Cl [Compound 174, (E)-N-(2-(((5-chloro-2-((1-methyl-1H-pyrazol-4-yl)amino)pyrimidin-4-yl)amino)methyl)-3-fluorophenyl)-4-(dimethylamino)but-2-enamide]
> 10	> 10	9.97	C=CC(=O)Nc1ccc(C#Cc2ccccc2)c(Nc2nc(Nc3cnn(C)c3)ncc2Cl)c1 [Compound 178, N-[3-({5-chloro-2-[(1-methyl-1H-pyrazol-4-yl)amino]pyrimidin-4-yl}amino)-4-(2-phenylethynyl)phenyl] prop-2-enamide]
> 10	> 10	> 10	C=CC(=O)Nc1ccc(F)c(Nc2nc(NC3CC3)ncc2-c2ccc(C(F)(F)F)cc2)c1 [Compound 180, N-(3-{[2-(cyclopropylamino)-5-[4-(trifluoromethyl)phenyl]pyrimidin-4-yl]amino}-4-fluorophenyl)prop-2-enamide]
> 10	> 10	> 10	C=CC(=O)Nc1ccc(F)c(Nc2nc(NC3CCC3)ncc2-c2ccc(C(F)(F)F)cc2)c1 [Compound 181, N-(3-((2-(cyclobutylamino)-5-(4-(trifluoromethyl)phenyl)pyrimidin-4-yl)amino)-4-fluorophenyl)acrylamide]
7.47	9.98	6.11	C=CC(=O)Nc1cccc(Oc2cc(Nc3cnn(C)c3)ncc2-c2ccc(C(F)(F)F)cc2)c1 [Compound 182, N-[3-({2-[(1-methyl-1H-pyrazol-4-yl)amino]-5-[4-(trifluoromethyl)phenyl]pyridin-4-yl}oxy)phenyl]prop-2-enamide; trifluoroacetic acid]
0.286	0.32	0.292	C=CC(=O)Nc1cccc(Oc2nc(Nc3cnn(C)c3)ncc2-c2cncc(C)c2)c1 [Compound 183, N-[3-({2-[(1-methyl-1H-pyrazol-4-yl)amino]-5-(5-methylpyridin-3-yl)pyrimidin-4-yl}oxy)phenyl]prop-2-enamide]
> 10	> 10	8.13	C=CC(=O)Nc1cccc(Oc2nc(Nc3ccccc3Cl)ncc2-c2ccc(C(F)(F)F)cc2)c1 [Compound 189, N-(3-((2-((2-chlorophenyl)amino)-5-(4-(trifluoromethyl)phenyl)pyrimidin-4-yl)oxy)phenyl)acrylamide]

Structure (SMILES)	GI50 [1] [µM]	GI50 [2] [µM]	IC50 (A431 cells) [µM]
C=CC(=O)Nc1ccc(F)c(Nc2nc(Nc3cnn(C)c3)ncc2C2=CCN(C)CC2)c1 [Compound 114, N-(4-fluoro-3-((5-(1-methyl-1,2,3,6-tetrahydropyridin-4-yl)-2-((1-methyl-1H-pyrazol-4-yl)amino)pyrimidin-4-yl)amino)phenyl)acrylamide]	0.964	1.84	0.816
C=CC(=O)Nc1cccc(Oc2nc(Nc3cnn(C)c3)ncc2C2=CCN(C)CC2)c1 [Compound 190, N-(3-((5-(1-methyl-1,2,3,6-tetrahydropyridin-4-yl)-2-((1-methyl-1H-pyrazol-4-yl)amino)pyrimidin-4-yl)oxy)phenyl)acrylamide]	9.04	8.86	6.76
